Where two headings read alike, the source gives them in different places. Residues, ends and D or L forms follow the SMILES beside them. No end group written: not given here.
How the values were obtained:
purified PR/8 virus = test system: purified PR/8 virus; design: species or system influenza virus A/PuertoRico/8/34 (PR/8, H1N1)
MDCK cells = conditions: 5-75 μM peptide, 24 hours, in words
cRBCs = conditions: for effect on cRBC membrane integrity: at any concentration (1-30 μM), in words
in vitro = conditions: dog, MDCK cells
[1] = 10 μM peptide, 64 HA units of purified A/PR/8/34, Yes/No
[2] = 10 μM peptide, mock treated virus (64 HAU) = 100% hemagglutination
[3] = 0.1-10 μM peptide, 64 HA units purified PR/8, estimated from dose response curves (Table 3)

With `O=C(CCCCCCC(=O)ON1C(=O)CCC1=O)ON1C(=O)CCC1=O` [DSS, disuccinimidyl suberate, reference compound] the “virion aggregation by electron microscopy” value (purified PR/8 virus) was “large aggregates”.
With `N=C(N)NCCC[C@H](NC(=O)[C@@H](N)CCCNC(=N)N)C(=O)N[C@@H](CCCCN)C(=O)N[C@@H](CCCCN)C(=O)O` [SEQ. ID. NO: 17, RRKK] (H-RRKK-OH; N-terminus and C-terminus assumed) the HA inhibition (purified A/PR/8/34) was “No”, the antiviral activity (purified A/PR/8/34) was “no antiviral activity” and the “% inhibition” value (purified A/PR/8/34; 10 μM) was 0%.
In the case of “EEDDLAVLLALLA [SEQ ID NO: 54, EEDDLAVLLALLA]”, the “% inhibition” value (purified A/PR/8/34; 10 μM) is reported as 0%.
In the case of “KKLAVLLALLA [SEQ ID NO: 53, KKLAVLLALLA]”, the “% inhibition” value (purified A/PR/8/34; 10 μM) is reported as 0%.
With KLAVLLALLA [SEQ ID NO: 52, KLAVLLALLA] the “% inhibition” value (purified A/PR/8/34; 10 μM) was 25%.
For RKAVLLALLA [SEQ ID NO: 51, RKAVLLALLA], the “viral hemagglutination activity (FIG. 7)” value (purified A/PR/8/34) was “detected to a lesser extent” and the “% inhibition” value (purified A/PR/8/34; 10 μM) was 50%.
In the case of “RKKLAVLLALLA [SEQ ID NO: 50, RKKLAVLLALLA]”, the EC50 (purified A/PR/8/34) is reported as 8000 nM, the “viral hemagglutination activity (FIG. 7)” value (purified A/PR/8/34) is reported as “detected to a lesser extent” and the “% inhibition” value (purified A/PR/8/34; 10 μM) is reported as 75%.
With RRKKA [SEQ. ID. NO: 16, RRKKA] the HA inhibition (purified A/PR/8/34) was “No” and the “% inhibition” value (purified A/PR/8/34; 10 μM) was 0%.
For RRKKAA [SEQ. ID. NO: 15, RRKKAA], the HA inhibition (purified A/PR/8/34) was “No” and the “% inhibition” value (purified A/PR/8/34; 10 μM) was 0%.
In the case of “RRKKAAAAAAAAA [SEQ ID NO: 49, RRKKAAAAAAAAA]”, the EC50 (purified A/PR/8/34) is reported as roughly 7000 nM, the “viral hemagglutination activity (FIG. 7)” value (purified A/PR/8/34) is reported as “detected to a lesser extent” and the “% inhibition” value (purified A/PR/8/34; 10 μM) is reported as 87.5%.
In the case of “RRKKAALLVLAALAVLA [SEQ. ID. NO: 30, RRKKAALLVLAALAVLA]”, the HA inhibition (purified A/PR/8/34) is reported as “No” and the “% inhibition” value (purified A/PR/8/34; 10 μM) is reported as 0%.
With RRKKAAV [SEQ. ID. NO: 14, RRKKAAV] the HA inhibition (purified A/PR/8/34) was “No” and the “% inhibition” value (purified A/PR/8/34; 10 μM) was 0%.
In the case of RRKKAAVA [SEQ. ID. NO: 13, RRKKAAVA], the HA inhibition (purified A/PR/8/34) is reported as “No” and the “% inhibition” value (purified A/PR/8/34; 10 μM) is reported as 0%.
With RRKKAAVAL [SEQ. ID. NO: 12, RRKKAAVAL] the HA inhibition (purified A/PR/8/34) was “No” and the “% inhibition” value (purified A/PR/8/34; 10 μM) was 0%.
For “RRKKAAVALL [SEQ. ID. NO: 11, RRKKAAVALL]”, the HA inhibition (purified A/PR/8/34) was “No” and the “% inhibition” value (purified A/PR/8/34; 10 μM) was 0%.
In the case of “RRKKAAVALLAVLLALLA [SEQ. ID. NO: 43, RRKKAAVALLAVLLALLA]”, the HA inhibition (purified A/PR/8/34; [1]) is reported as “Yes”, the “% inhibition” value (purified A/PR/8/34; [2]) is reported as 95±2% and the EC50 (purified A/PR/8/34; [3]) is reported as 1600 ± 1200 nM.
With “RRKKAAVALLP [SEQ. ID. NO: 10, RRKKAAVALLP]” the HA inhibition (purified A/PR/8/34) was “No” and the “% inhibition” value (purified A/PR/8/34; 10 μM) was 4 ± 8%.
With “RRKKAAVALLPA [SEQ. ID. NO: 9, RRKKAAVALLPA]” the HA inhibition (purified A/PR/8/34) was “No” and the “% inhibition” value (purified A/PR/8/34; 10 μM) was 0%.
For “RRKKAAVALLPAV [SEQ. ID. NO: 8, RRKKAAVALLPAV]”, the HA inhibition (purified A/PR/8/34) was “No” and the “% inhibition” value (purified A/PR/8/34; 10 μM) was 0%.
In the case of “RRKKAAVALLPAVL [SEQ. ID. NO: 7, RRKKAAVALLPAVL]”, the HA inhibition (purified A/PR/8/34) is reported as “No” and the “% inhibition” value (purified A/PR/8/34; 10 μM) is reported as 0%.
In the case of “RRKKAAVALLPAVLL [SEQ. ID. NO: 6, RRKKAAVALLPAVLL]”, the HA inhibition (purified A/PR/8/34) is reported as “No” and the “% inhibition” value (purified A/PR/8/34; 10 μM) is reported as 0%.
In the case of “RRKKAAVALLPAVLLA [SEQ. ID. NO: 5, RRKKAAVALLPAVLLA]”, the EC50 (purified A/PR/8/34) is reported as 2800 ± 1100 nM, the HA inhibition (purified A/PR/8/34) is reported as “Yes” and the “% inhibition” value (purified A/PR/8/34; 10 μM) is reported as 96 ± 3%.
In the case of “RRKKAAVALLPAVLLAL [SEQ. ID. NO: 4, RRKKAAVALLPAVLLAL]”, the EC50 (purified A/PR/8/34) is reported as 3800 ± 1900 nM, the HA inhibition (purified A/PR/8/34) is reported as “Yes” and the “% inhibition” value (purified A/PR/8/34; 10 μM) is reported as 89 ± 3%.
With “RRKKAAVALLPAVLLALL [SEQ. ID. NO: 3, RRKKAAVALLPAVLLALL]” the HA inhibition (purified A/PR/8/34; [1]) was “Yes”, the “% inhibition” value (purified A/PR/8/34; [2]) was 95 ± 2% and the EC50 (purified A/PR/8/34; [3]) was 600 ± 300 nM.
With “RRKKAAVALLPAVLLALLA [SEQ. ID. NO: 2, RRKKAAVALLPAVLLALLA]” the HA inhibition (purified A/PR/8/34; [1]) was “Yes”, the “% inhibition” value (purified A/PR/8/34; [2]) was 94 ± 2% and the EC50 (purified A/PR/8/34; [3]) was 500 ± 300 nM.
With “RRKKAAVALLPAVLLALLAP [EB, reference compound]” the “toxicity against MDCK cells” value (MDCK cells) was “limited toxicity”, the “effect on cRBC membrane integrity” value (cRBCs) was “no effect” and the “% inhibition” value (purified A/PR/8/34; [2]) was 95 ± 2%. For the same compound, the “% inhibition” value (purified A/PR/8/34; 10 μM peptide, normalized to EB-treated (10 μM EB) virus (64 HAU) = 100% inhibition (Table 4)) was 100%, the EC50 (purified A/PR/8/34; [3]) was 2600 nM and the EC50 (purified A/PR/8/34; Example 6, Table 4) was 2000 nM.
With RRKKALLAP [SEQ. ID. NO: 25, RRKKALLAP] the HA inhibition (purified A/PR/8/34) was “No” and the “% inhibition” value (purified A/PR/8/34; 10 μM) was 0%.
For “RRKKALLPAVLLALLAP [SEQ. ID. NO: 20, RRKKALLPAVLLALLAP]”, the EC50 (purified A/PR/8/34) was 700 ± 300 nM, the HA inhibition (purified A/PR/8/34) was “Yes” and the “% inhibition” value (purified A/PR/8/34; 10 μM) was 94 ± 3%.
With RRKKAP [SEQ. ID. NO: 28, RRKKAP] the HA inhibition (purified A/PR/8/34) was “No” and the “% inhibition” value (purified A/PR/8/34; 10 μM) was 0%.
For “RRKKAVALLPAVLLALLAP [SEQ. ID. NO: 18, RRKKAVALLPAVLLALLAP]”, the HA inhibition (purified A/PR/8/34; [1]) was “Yes”, the “% inhibition” value (purified A/PR/8/34; [2]) was 94 ± 6% and the EC50 (purified A/PR/8/34; [3]) was 800 ± 300 nM.
With “RRKKLAALPLVLAAPLAVLA [EBX, reference compound]” the “effect on cRBC membrane integrity” value (cRBCs) was “no effect” and the “% inhibition” value (purified A/PR/8/34; 10 μM) was 0%.
For RRKKLAP [SEQ. ID. NO: 27, RRKKLAP], the HA inhibition (purified A/PR/8/34) was “No” and the “% inhibition” value (purified A/PR/8/34; 10 μM) was 0%.
In the case of “RRKKLAVAAALLA [SEQ ID NO: 55, RRKKLAVAAALLA]”, the “% inhibition” value (purified A/PR/8/34; 10 μM) is reported as 0%.
In the case of “RRKKLAVLLAAAA [SEQ ID NO: 56, RRKKLAVLLAAAA]”, the “% inhibition” value (purified A/PR/8/34; 10 μM) is reported as 0%.
For “RRKKLAVLLALLA [SEQ. ID. NO: 45, RRKKLAVLLALLA]”, the “virion aggregation by electron microscopy” value (purified PR/8 virus) was “large aggregates”, the EC50 (purified A/PR/8/34) was 3000 nM and the HA inhibition (purified A/PR/8/34) was “Yes”.
For “RRKKLLALLAP [SEQ. ID. NO: 24, RRKKLLALLAP]”, the HA inhibition (purified A/PR/8/34) was “No” and the “% inhibition” value (purified A/PR/8/34; 10 μM) was 0%.
In the case of RRKKLLAP [SEQ. ID. NO: 26, RRKKLLAP], the HA inhibition (purified A/PR/8/34) is reported as “No” and the “% inhibition” value (purified A/PR/8/34; 10 μM) is reported as 0%.
With “RRKKLLAVLLALLA [SEQ ID NO: 44, RRKKLLAVLLALLA]” the EC50 (purified A/PR/8/34) was 3000 nM, the HA inhibition (purified A/PR/8/34) was “Yes” and the “% inhibition” value (purified A/PR/8/34; 10 μM) was 95±2%.
With “RRKKLLPAVLLALLAP [SEQ. ID. NO: 21, RRKKLLPAVLLALLAP]” the EC50 (purified A/PR/8/34) was 800 ± 300 nM, the HA inhibition (purified A/PR/8/34) was “Yes” and the “% inhibition” value (purified A/PR/8/34; 10 μM) was 94 ± 4%.
In the case of “RRKKLPAVLLALLAP [SEQ. ID. NO: 22, RRKKLPAVLLALLAP]”, the HA inhibition (purified A/PR/8/34) is reported as “Yes” and the “viral hemagglutination activity (FIG. 7)” value (purified A/PR/8/34) is reported as “the same as that for the EB peptide”.
In the case of RRKKP [SEQ. ID. NO: 29, RRKKP], the HA inhibition (purified A/PR/8/34) is reported as “No” and the “% inhibition” value (purified A/PR/8/34; 10 μM) is reported as 0%.
In the case of “RRKKVALLAVLLALLA [SEQ. ID. NO: 32, RRKKVALLAVLLALLA]”, the viability at 24 h, 75 µM (in vitro) is reported as 20%, the “toxicity against MDCK cells” value (MDCK cells) is reported as “significant toxicity” and the “lysis (hemoglobin release) compared to SDS treated control” value (cRBCs; 10 μM peptide) is reported as 71%. For the same compound, the “lysis (hemoglobin release) compared to SDS treated control” value (cRBCs; 30 μM peptide) was 100%, the “concentration inducing hemoglobin release” value (cRBCs; 0.5% cRBC, 1 hour at 37° C.) was “exceeding 5 μM” and the EC50 (purified A/PR/8/34) was 500 ± 500 nM. For the same compound, the “% inhibition” value (purified A/PR/8/34; 10 μM) was 94 ± 4%.
With “RRKKVALLPAVLLALLAP [SEQ. ID. NO: 19, RRKKVALLPAVLLALLAP]” the HA inhibition (purified A/PR/8/34; [1]) was “Yes”, the “% inhibition” value (purified A/PR/8/34; [2]) was 94 ± 4% and the EC50 (purified A/PR/8/34; [3]) was 500 ± 400 nM.
In the case of “RRKKVLLALLAP [SEQ. ID. NO: 23, RRKKVLLALLAP]”, the EC50 (purified A/PR/8/34) is reported as 4000 ± 800 nM, the HA inhibition (purified A/PR/8/34) is reported as “Yes” and the “% inhibition” value (purified A/PR/8/34; 10 μM) is reported as 90 ± 4%.
